According to patent US12070458B2, “Therapeutic agent composition and method of use, for treatment of mild congnitive impairment, depression, and psychological disorders” (priority 2018, dated 2024):
Entries after “also recorded” stand apart in the source; their conditions may differ.

Tested on: Alzheimer patients with mild cognitive impairment
Assay: Clinical trial on Alzheimer's patients with mild cognitive impairment
Format: in vivo, human
Conditions: 10 mg orally once a day
Procedure: A randomized clinical trial of NA-831 (also known as cyclic Prolyl Glycine) was performed on Alzheimer patients with mild cognitive impairment of vascular origin. The drug NA-831 was administered orally with a one capsule of 10 mg once a day over a period of 12 weeks. There were 32 Alzheimer patients participated in the study.
• Is male or female, at 55-85 years of age (inclusive) at screening. • Self-reported memory complaint, corroborated by spouse or companion as appropriate. • Wechsler Memory Scale III (WMS-III) age-adjusted Logical Memory II score ≤5. • Mini-Mental State Exam (MMSE)≥24. • Center for Epidemiologic Studies-Depression (CES-D) score <27. • Normal thyroid function, defined as TSH, T3 and T4 within normal limits. • Agree not to consume alcoholic beverages within 8 hours of each study visit. • Willing and able to sign informed consent and complete the CTB and all other tests and procedures as listed in the protocol. • Female subjects must be surgically sterile or post-menopausal for at least 2 years. If <2 years post-menopausal, then a follicle stimulating hormone (FSH) ≥40 mIU/mL must be obtained. […] Assessment • 1) A scale assessing the severity of symptoms based on the Unified Assessment of Clinical-Pharmacological Actions of Psychotropic Agents in Patients with Organic Disorders, which provides objective quantitative data on the therapeutic dynamics of psychopathological symptomatology and the characteristics of the psychotropic actions of agents. • 2) The Mini Mental State Examination (MMSE), which consists of a battery of neuropsychological tests evaluating cognitive functions in points: attention, memory, gnosis, speech, praxis, and counting. • 3) The Brief Cognitive Rating Scale (BCRS), which provides assessment of the severities of the individual components of cognitive impairments. • 4) The Cognitive Capacity Screening Examination (CCSE), which consists of a battery of tests assessing cognitive functions: orientation, memory, counting, and the abilities to infer and to group objects. • 5) The Clinical Global Impression scale, which provides quantitative assessments of the therapeutic efficacies of agents, along with tolerance and safety, using investigations of measures of disease severity, the level of “overall improvement,” the therapeutic effect, and the presence and severity of side effects during treatment. • 6) Laboratory analyses consisting of general blood and urine tests, including biochemical investigations (AST, ALT). • 7) ECG traces. Results
The mental state of patients with mild cognitive impairment, such as but not limited to through vascular origin was defined by the assessment including the Mini Mental State Examination (MMSE), the Brief Cognitive Rating Scale (BCRS), the Cognitive Capacity Screening Examination (CCSE).
W is Wilcoxon signed-rank test, which is the nonparametric test equivalent to the dependent t-test. It is used to compare two sets of scores that come from the same participants. This can occur when we wish to investigate any change in scores from one time point to another, or when individuals are subjected to more than one condition.
Clinicians use used a Wilcoxon signed-rank test to understand whether there was a difference in the patient conditions in term of fatigue before and after a period the time with the drug treatment.
Analysis of the therapeutic efficacies of NA-831 were performed in all patients in the trial using the assessment methods including: the Mini Mental State Examination (MMSE), the Brief Cognitive Rating Scale (BCRS), and the Cognitive Capacity Screening Examination (CCSE).

## O=C1NCC(=O)N2CCC[C@@H]12 [cPG, cyclic Prolyl Glycine]
12 weeks
  long-term memory: improves
  orientation: improves
  patients with little improvement: 7.5%
  patients with marked improvement: 92.5%
  short-term memory: improves
Day 42 to day 84, p value of less than 0.01
  ability to concentrate and count (Brief Cognitive Rating Scale): improve
Listed as NA-831
  functions significantly improved with p<0.01: Reduce fatigue; also recorded: Reduce anxiety; also recorded: Reduce irritability; also recorded: Improve lability; also recorded: Reduce disturbance from waking up at night; also recorded: Reduce daytime drowsiness; also recorded: Improve duration of nocturnal sleep
Baseline vs day 7
  Affective Lability, W (Wilcoxon signed-rank test): 23
  Anxiety, W (Wilcoxon signed-rank test): 22
  Apathy indifference, W (Wilcoxon signed-rank test): 19
  Daytime drowsiness, W (Wilcoxon signed-rank test): 19
  Decreased mood, W (Wilcoxon signed-rank test): 3
  Disturbance to waking, W (Wilcoxon signed-rank test): 21
  Headache, W (Wilcoxon signed-rank test): 28
  Hyperesthesia, W (Wilcoxon signed-rank test): 11
  Impairments to the depth and duration of nocturnal sleep, W (Wilcoxon signed-rank test): 37
  Increased fatigue, W (Wilcoxon signed-rank test): 17
  Increased irritability, W (Wilcoxon signed-rank test): 38
  Orthostatic Impairment, W (Wilcoxon signed-rank test): 18
  Sleeping Disturbance, W (Wilcoxon signed-rank test): 37
  Sweating, W (Wilcoxon signed-rank test): 12
  Tachycardia, W (Wilcoxon signed-rank test): 29
Baseline vs day 14
  Affective Lability, W (Wilcoxon signed-rank test): 58
  Anxiety, W (Wilcoxon signed-rank test): 22
  Apathy indifference, W (Wilcoxon signed-rank test): 41
  Daytime drowsiness, W (Wilcoxon signed-rank test): 45
  Decreased mood, W (Wilcoxon signed-rank test): 12
  Disturbance to waking, W (Wilcoxon signed-rank test): 29
  Headache, W (Wilcoxon signed-rank test): 49
  Hyperesthesia, W (Wilcoxon signed-rank test): 21
  Impairments to the depth and duration of nocturnal sleep, W (Wilcoxon signed-rank test): 57
  Increased fatigue, W (Wilcoxon signed-rank test): 95
  Increased irritability, W (Wilcoxon signed-rank test): 47
  Orthostatic Impairment, W (Wilcoxon signed-rank test): 37
  Sleeping Disturbance, W (Wilcoxon signed-rank test): 47
  Sweating, W (Wilcoxon signed-rank test): 23
  Tachycardia, W (Wilcoxon signed-rank test): 28
Baseline vs day 21
  Affective Lability, W (Wilcoxon signed-rank test): 69
  Anxiety, W (Wilcoxon signed-rank test): 46
  Apathy indifference, W (Wilcoxon signed-rank test): 57
  Daytime drowsiness, W (Wilcoxon signed-rank test): 52
  Decreased mood, W (Wilcoxon signed-rank test): 22
  Disturbance to waking, W (Wilcoxon signed-rank test): 41
  Headache, W (Wilcoxon signed-rank test): 98
  Hyperesthesia, W (Wilcoxon signed-rank test): 33
  Impairments to the depth and duration of nocturnal sleep, W (Wilcoxon signed-rank test): 91
  Increased fatigue, W (Wilcoxon signed-rank test): 97
  Increased irritability, W (Wilcoxon signed-rank test): 68
  Orthostatic Impairment, W (Wilcoxon signed-rank test): 58
  Sleeping Disturbance, W (Wilcoxon signed-rank test): 70
  Sweating, W (Wilcoxon signed-rank test): 37
  Tachycardia, W (Wilcoxon signed-rank test): 35
Baseline vs day 28
  Affective Lability, W (Wilcoxon signed-rank test): 118
  Anxiety, W (Wilcoxon signed-rank test): 70
  Apathy indifference, W (Wilcoxon signed-rank test): 59
  Daytime drowsiness, W (Wilcoxon signed-rank test): 67
  Decreased mood, W (Wilcoxon signed-rank test): 23
  Disturbance to waking, W (Wilcoxon signed-rank test): 47
  Headache, W (Wilcoxon signed-rank test): 101
  Hyperesthesia, W (Wilcoxon signed-rank test): 67
  Impairments to the depth and duration of nocturnal sleep, W (Wilcoxon signed-rank test): 93
  Increased fatigue, W (Wilcoxon signed-rank test): 137
  Increased irritability, W (Wilcoxon signed-rank test): 93
  Orthostatic Impairment, W (Wilcoxon signed-rank test): 78
  Sleeping Disturbance, W (Wilcoxon signed-rank test): 70
  Sweating, W (Wilcoxon signed-rank test): 66
  Tachycardia, W (Wilcoxon signed-rank test): 45
Baseline vs day 42
  Affective Lability, W (Wilcoxon signed-rank test): 139
  Anxiety, W (Wilcoxon signed-rank test): 107
  Apathy indifference, W (Wilcoxon signed-rank test): 61
  Daytime drowsiness, W (Wilcoxon signed-rank test): 76
  Decreased mood, W (Wilcoxon signed-rank test): 23
  Disturbance to waking, W (Wilcoxon signed-rank test): 69
  Headache, W (Wilcoxon signed-rank test): 120
  Hyperesthesia, W (Wilcoxon signed-rank test): 69
  Impairments to the depth and duration of nocturnal sleep, W (Wilcoxon signed-rank test): 104
  Increased fatigue, W (Wilcoxon signed-rank test): 155
  Increased irritability, W (Wilcoxon signed-rank test): 109
  Orthostatic Impairment, W (Wilcoxon signed-rank test): 67
  Sleeping Disturbance, W (Wilcoxon signed-rank test): 82
  Sweating, W (Wilcoxon signed-rank test): 67
  Tachycardia, W (Wilcoxon signed-rank test): 53
Baseline vs day 56
  Affective Lability, W (Wilcoxon signed-rank test): 140
  Anxiety, W (Wilcoxon signed-rank test): 110
  Apathy indifference, W (Wilcoxon signed-rank test): 65
  Daytime drowsiness, W (Wilcoxon signed-rank test): 109
  Decreased mood, W (Wilcoxon signed-rank test): 23
  Disturbance to waking, W (Wilcoxon signed-rank test): 92
  Headache, W (Wilcoxon signed-rank test): 121
  Hyperesthesia, W (Wilcoxon signed-rank test): 78
  Impairments to the depth and duration of nocturnal sleep, W (Wilcoxon signed-rank test): 113
  Increased fatigue, W (Wilcoxon signed-rank test): 159
  Increased irritability, W (Wilcoxon signed-rank test): 110
  Orthostatic Impairment, W (Wilcoxon signed-rank test): 78
  Sleeping Disturbance, W (Wilcoxon signed-rank test): 82
  Sweating, W (Wilcoxon signed-rank test): 67
  Tachycardia, W (Wilcoxon signed-rank test): 67
Baseline vs day 70
  Affective Lability, W (Wilcoxon signed-rank test): 142
  Anxiety, W (Wilcoxon signed-rank test): 115
  Apathy indifference, W (Wilcoxon signed-rank test): 67
  Daytime drowsiness, W (Wilcoxon signed-rank test): 117
  Decreased mood, W (Wilcoxon signed-rank test): 24
  Disturbance to waking, W (Wilcoxon signed-rank test): 95
  Headache, W (Wilcoxon signed-rank test): 129
  Hyperesthesia, W (Wilcoxon signed-rank test): 83
  Impairments to the depth and duration of nocturnal sleep, W (Wilcoxon signed-rank test): 118
  Increased fatigue, W (Wilcoxon signed-rank test): 162
  Increased irritability, W (Wilcoxon signed-rank test): 117
  Orthostatic Impairment, W (Wilcoxon signed-rank test): 81
  Sleeping Disturbance, W (Wilcoxon signed-rank test): 82
  Sweating, W (Wilcoxon signed-rank test): 69
  Tachycardia, W (Wilcoxon signed-rank test): 69
Day 84, average 23.5 on day 1
  MMSE, average: 29.75
